The text below walks through data of US9316633B2, “Methods for identifying inhibitors of solute transporters” (The Regents of the University of California, priority 2006, dated 2016).

The experiment deals with T1, UT-B (Homo sapiens, UniProt Q13336).
T1 construct: the indicator cells are red blood cells that endogenously express the UT-B urea transporter; endogenous in cells; host or cells: human red blood cells (whole venous blood, single donor)
T1 sequence (Q13336 1-389): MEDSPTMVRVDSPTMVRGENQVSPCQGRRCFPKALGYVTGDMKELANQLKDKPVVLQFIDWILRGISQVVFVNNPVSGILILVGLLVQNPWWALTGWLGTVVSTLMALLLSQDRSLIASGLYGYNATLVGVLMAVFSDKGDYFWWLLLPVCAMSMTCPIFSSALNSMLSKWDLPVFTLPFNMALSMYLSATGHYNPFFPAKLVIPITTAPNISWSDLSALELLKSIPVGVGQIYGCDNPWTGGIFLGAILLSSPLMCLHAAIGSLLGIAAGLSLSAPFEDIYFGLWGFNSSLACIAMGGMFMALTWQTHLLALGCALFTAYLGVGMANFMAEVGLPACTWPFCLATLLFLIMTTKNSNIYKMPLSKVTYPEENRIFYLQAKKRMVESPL
Nature of the experiment: RBC lysis assay, human RBCs loaded with acetamide. It counts as cell-based. The conditions noted are these: UT-B inhibitory potency.

pEC50: −log10 of the molar value.

As for `Oc1ccccc1CNc1nc2ccccc2n1CCN1CCCCC1` [ureainh-408, 2-((1-(2-(piperidin-1-yl)ethyl)-1H-benzo[d]imidazol-2-ylamino)methyl)phenol], the pEC50 (as a rule, −log10 of the EC50, conventionally taken in molar units) (Table 7, aminobenzimidazoles) is 6.05.
`Cc1ccc(-c2nnc(Nc3ccc(O)cc3)c3ccccc23)cc1S(=O)(=O)N1CCOCC1` [ureainh-328, 4-(4-(4-methyl-3-(morpholinosulfonyl)phenyl)phthalazin-1-ylamino)phenol] gave a pEC50 (Table 5, phthalazinamines) of 5.52.
`NC(=O)c1ccc(-c2nnc(Nc3ccc(S(N)(=O)=O)cc3)c3ccccc23)cc1` [ureainh-307, 4-(4-(4-sulfamoylphenylamino)phthalazin-1-yl)benzamide]: under “Table 5, phthalazinamines”, the pEC50 is 5.52.
`Oc1ccccc1CNc1nc2ccccc2n1CCN1CCOCC1` [ureainh-412, 2-((1-(2-morpholinoethyl)-1H-benzo[d]imidazol-2-ylamino)methyl)phenol] had a pEC50 (Table 7, aminobenzimidazoles) of 5.22.
On the same count and under the same terms, then `CCCn1c(NCc2cc(Cl)ccc2O)nc2ccccc21` [ureainh-401, 4-chloro-2-((1-propyl-1H-benzo[d]imidazol-2-ylamino)methyl)phenol], with 6.52.
For the compound `CC(=O)Nc1ccc(Nc2nnc(-c3ccc(O)cc3)c3ccccc23)cc1` [ureainh-317, N-(4-(4-(4-hydroxyphenyl)phthalazin-1-ylamino)phenyl)acetamide], the pEC50 (Table 5, phthalazinamines) was 5.52.
`CNC(=O)COc1ccc(Nc2nnc(-c3ccc(C)cc3)c3ccccc23)cc1` [ureainh-315, N-methyl-2-(4-(4-p-tolylphthalazin-1-ylamino)phenoxy)acetamide] showed a pEC50 (Table 5, phthalazinamines) of 5.70.
Same read-out and setting: the result for `Cc1ccc(-c2nnc(Nc3ccc(C(N)=O)cc3)c3ccccc23)cc1S(=O)(=O)N(C)C` [ureainh-321, 4-(4-(3-(N,N-dimethylsulfamoyl)-4-methylphenyl)phthalazin-1-ylamino) benzamide] reads 6.00.
Regarding `CCCn1c(NCc2cc(OC)ccc2O)nc2ccccc21` [ureainh-418, 4-methoxy-2-((1-propyl-1H-benzo[d]imidazol-2-ylamino)methyl)phenol], the pEC50 (Table 7, aminobenzimidazoles) was 5.22.
Same read-out and setting: the result for `CCn1c(NC(C)c2cc(Cl)ccc2O)nc2ccccc21` (stereo not shown) [ureainh-423, 4-chloro-2-(1-(1-ethyl-1H-benzo[d]imidazol-2-ylamino)ethyl)phenol] reads 5.30.
`CNC(=O)COc1ccc(Nc2nnc(-c3ccc(C)c(S(=O)(=O)NC)c3)c3ccccc23)cc1` [ureainh-326, N-methyl-2-(4-(4-(4-methyl-3-(N-methylsulfamoyl)phenyl)phthalazin-1-ylamino)phenoxy) acetamide] had a pEC50 (Table 5, phthalazinamines) of 5.70.
The same measure, in the same setting: the result for `COc1ccc(Nc2nnc(-c3ccc(C(N)=O)cc3)c3ccccc23)cc1` [ureainh-301, 4-(4-(4-methoxyphenylamino)phthalazin-1-yl)benzamide] reads 7.00.
Consider `CCn1c(NCc2c(O)ccc3ccccc23)nc2ccccc21` [ureainh-421, 1-((1-ethyl-1H-benzo[d]imidazol-2-ylamino)methyl)naphthalen-2-ol], for which the pEC50 (Table 7, aminobenzimidazoles) is 5.52.
Turning to `COc1ccc(Nc2nnc(-c3ccc(O)cc3)c3ccccc23)cc1` [ureainh-316, 4-(4-(4-methoxyphenylamino)phthalazin-1-yl)phenol], the pEC50 (Table 5, phthalazinamines) was 5.70.
Same read-out and setting: then `CNC(=O)COc1ccc(Nc2nnc(-c3ccccc3)c3ccccc23)cc1` [ureainh-319, N-methyl-2-(4-(4-phenylphthalazin-1-ylamino)phenoxy)acetamide], with 5.52; and `CCN(CC)C(=O)c1ccc(-c2nnc(Nc3ccc(C(=O)N(C)C)cc3)c3ccccc23)cc1` [ureainh-310, 4-(4-(4-(diethylcarbamoyl)phenyl)phthalazin-1-ylamino)-N,N-dimethylbenzamide], with 5.52.
